Data from patent publication US10428044B2, “3-amino-1,5,6,7-tetrahydro-4H-indol-4-ones” (Bayer Pharma Aktiengesellschaft, priority 2014, dated 2019).

Target: (recombinant) catalytic domain of human Bub1 (amino acids 704-1085) (Homo sapiens (Human), UniProt O43683)
Experiment: Bub1 kinase assay (TR-FRET)
Type: biochemical
Conditions: ATP 10 μM final, peptide substrate 1 μM final, 60 min at 22° C., read-out: Biological Assay: Bub1 kinase assay median IC50
Method in brief: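 Compounds were serially diluted 1:3.4 from 2 mM DMSO stocks and incubated with the enzyme reaction for 60 min at 22° C. The reaction was stopped with EDTA, and biotinylated peptide phosphorylation was read by TR-FRET using Eu anti-mouse IgG, anti-phosphoserine antibody and streptavidin-XL665. IC50 was fitted by 4-parameter logistic to inhibition normalized to no-inhibitor and no-enzyme controls.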

Sequence of (recombinant) catalytic domain of human Bub1 (amino acids 704-1085) (O43683 704-1085): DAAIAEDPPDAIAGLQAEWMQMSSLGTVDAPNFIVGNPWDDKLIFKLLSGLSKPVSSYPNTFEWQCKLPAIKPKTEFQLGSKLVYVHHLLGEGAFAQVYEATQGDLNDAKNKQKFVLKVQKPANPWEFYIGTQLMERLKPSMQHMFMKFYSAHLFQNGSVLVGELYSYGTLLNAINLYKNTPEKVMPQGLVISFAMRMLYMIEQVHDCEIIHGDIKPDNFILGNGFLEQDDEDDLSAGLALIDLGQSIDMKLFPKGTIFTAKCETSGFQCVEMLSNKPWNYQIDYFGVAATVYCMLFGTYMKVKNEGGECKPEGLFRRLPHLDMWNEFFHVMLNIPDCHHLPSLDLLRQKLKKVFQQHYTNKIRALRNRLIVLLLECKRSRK

SMILES	IC50 [µM]
O=C(Nc1cc(-c2[nH]c3c(c2Nc2ccccc2)C(=O)CCC3)ccn1)c1cocn1 [Example 278, N-{4-[4-oxo-3-(phenylamino)-4,5,6,7-tetrahydro-1H-indol-2-yl]pyridin-2-yl}-1,3-oxazole-4-carboxamide]	0.0127
O=C(Nc1cc(-c2[nH]c3c(c2Nc2ccccc2)C(=O)CCC3)ccn1)c1cccnc1 [Example 279, N-{4-[4-oxo-3-(phenylamino)-4,5,6,7-tetrahydro-1H-indol-2-yl]pyridin-2-yl}pyridine-3-carboxamide]	0.0126
O=C(Nc1cc(-c2[nH]c3c(c2Nc2ccccc2)C(=O)CCC3)ccn1)c1ccns1 [Example 280, N-{4-[4-oxo-3-(phenylamino)-4,5,6,7-tetrahydro-1H-indol-2-yl]pyridin-2-yl}-1,2-thiazole-5-carboxamide]	0.0103
O=C(Nc1cc(-c2[nH]c3c(c2Nc2ccccc2)C(=O)CCC3)ccn1)c1cnn[nH]1 [Example 281, N-{4-[4-oxo-3-(phenylamino)-4,5,6,7-tetrahydro-1H-indol-2-yl]pyridin-2-yl}-1H-1,2,3-triazole-5-carboxamide]	0.0112
O=C(Nc1cc(-c2[nH]c3c(c2Nc2ccccc2)C(=O)CCC3)ccn1)c1cnco1 [Example 282, N-{4-[4-oxo-3-(phenylamino)-4,5,6,7-tetrahydro-1H-indol-2-yl]pyridin-2-yl}-1,3-oxazole-5-carboxamide]	0.00972
O=C(Nc1cc(-c2[nH]c3c(c2Nc2ccccc2)C(=O)CCC3)ccn1)c1nnn[nH]1 [Example 283, N-{4-[4-oxo-3-(phenylamino)-4,5,6,7-tetrahydro-1H-indol-2-yl]pyridin-2-yl}-1H-tetrazole-5-carboxamide]	0.0189
O=C(Cc1ccc[nH]1)Nc1cc(-c2[nH]c3c(c2Nc2ccccc2)C(=O)CCC3)ccn1 [Example 284, N-{4-[4-oxo-3-(phenylamino)-4,5,6,7-tetrahydro-1H-indol-2-yl]pyridin-2-yl}-2-(1H-pyrrol-2-yl)acetamide]	0.0137
O=C(Cc1nccs1)Nc1cc(-c2[nH]c3c(c2Nc2ccccc2)C(=O)CCC3)ccn1 [Example 285, N-{4-[4-oxo-3-(phenylamino)-4,5,6,7-tetrahydro-1H-indol-2-yl]pyridin-2-yl}-2-(1,3-thiazol-2-yl)acetamide]	0.0308
O=C(Cc1cc[nH]c1)Nc1cc(-c2[nH]c3c(c2Nc2ccccc2)C(=O)CCC3)ccn1 [Example 286, N-{4-[4-oxo-3-(phenylamino)-4,5,6,7-tetrahydro-1H-indol-2-yl]pyridin-2-yl}-2-(1H-pyrrol-3-yl)acetamide]	0.0216
O=C(Cc1cscn1)Nc1cc(-c2[nH]c3c(c2Nc2ccccc2)C(=O)CCC3)ccn1 [Example 287, N-{4-[4-oxo-3-(phenylamino)-4,5,6,7-tetrahydro-1H-indol-2-yl]pyridin-2-yl}-2-(1,3-thiazol-4-yl)acetamide]	0.0484
O=C(Cc1ccco1)Nc1cc(-c2[nH]c3c(c2Nc2ccccc2)C(=O)CCC3)ccn1 [Example 288, 2-(furan-2-yl)-N-{4-[4-oxo-3-(phenylamino)-4,5,6,7-tetrahydro-1H-indol-2-yl]pyridin-2-yl}acetamide]	0.0167
Cc1cc(CC(=O)Nc2cc(-c3[nH]c4c(c3Nc3ccccc3)C(=O)CCC4)ccn2)on1 [Example 289, 2-(3-methyl-1,2-oxazol-5-yl)-N-{4-[4-oxo-3-(phenylamino)-4,5,6,7-tetrahydro-1H-indol-2-yl]pyridin-2-yl}acetamide]	0.0159
O=C(Cc1cccs1)Nc1cc(-c2[nH]c3c(c2Nc2ccccc2)C(=O)CCC3)ccn1 [Example 290, N-{4-[4-oxo-3-(phenylamino)-4,5,6,7-tetrahydro-1H-indol-2-yl]pyridin-2-yl}-2-(thiophen-2-yl)acetamide]	0.0139
O=C(Cc1ccsc1)Nc1cc(-c2[nH]c3c(c2Nc2ccccc2)C(=O)CCC3)ccn1 [Example 291, N-{4-[4-oxo-3-(phenylamino)-4,5,6,7-tetrahydro-1H-indol-2-yl]pyridin-2-yl}-2-(thiophen-3-yl)acetamide]	0.0287
Cn1nccc1CC(=O)Nc1cc(-c2[nH]c3c(c2Nc2ccccc2)C(=O)CCC3)ccn1 [Example 292, 2-(1-methyl-1H-pyrazol-5-yl)-N-{4-[4-oxo-3-(phenylamino)-4,5,6,7-tetrahydro-1H-indol-2-yl]pyridin-2-yl}acetamide]	0.34
CC(=O)Nc1cc(-c2[nH]c3c(c2Nc2ccccc2)C(=O)CC2(CC2)C3)ccn1 [Example 293, N-{4-[4′-oxo-3′-(phenylamino)-1′,4′,5′,7′-tetrahydrospiro[cyclopropane-1,6′-indol]-2′-yl]pyridin-2-yl}acetamide]	0.0112
O=C1CC2(CC2)Cc2[nH]c(-c3ccnc(NC(=O)C4CC4)c3)c(Nc3ccccc3)c21 [Example 294, N-{4-[4′-oxo-3′-(phenylamino)-1′,4′,5′,7′-tetrahydrospiro[cyclopropane-1,6′-indol]-2′-yl]pyridin-2-yl}cyclopropanecarboxamide]	0.00917
CC(C)(C)OC(=O)N1CC(C(=O)Nc2cc(-c3[nH]c4c(c3Nc3ccccc3)C(=O)CCC4)ccn2)C1 [Example 295, tert-butyl 3-({4-[4-oxo-3-(phenylamino)-4,5,6,7-tetrahydro-1H-indol-2-yl]pyridin-2-yl}carbamoyl)azetidine-1-carboxylate]	0.038
O=C1CCCc2[nH]c(-c3ccnc(NC(=O)C4CNC4)c3)c(Nc3ccccc3)c21 [Example 296, N-{4-[4-oxo-3-(phenylamino)-4,5,6,7-tetrahydro-1H-indol-2-yl]pyridin-2-yl}azetidine-3-carboxamide]	3.45
CN(CC(=O)Nc1cc(-c2[nH]c3c(c2Nc2ccccc2)C(=O)CCC3)ccn1)C(=O)OC(C)(C)C [Example 297, tert-butyl methyl[2-oxo-2-({4-[4-oxo-3-(phenylamino)-4,5,6,7-tetrahydro-1H-indol-2-yl]pyridin-2-yl}amino)ethyl]carbamate]	0.271
CN(CCC(=O)Nc1cc(-c2[nH]c3c(c2Nc2ccccc2)C(=O)CCC3)ccn1)C(=O)OC(C)(C)C [Example 299, tert-butyl methyl[3-oxo-3-({4-[4-oxo-3-(phenylamino)-4,5,6,7-tetrahydro-1H-indol-2-yl]pyridin-2-yl}amino)propyl]carbamate]	0.0743
CNCCC(=O)Nc1cc(-c2[nH]c3c(c2Nc2ccccc2)C(=O)CCC3)ccn1 [Example 300, N^2-methyl-N-{4-[4-oxo-3-(phenylamino)-4,5,6,7-tetrahydro-1H-indol-2-yl]pyridin-2-yl}-beta-alaninamide]	0.475
C[C@H](C(=O)Nc1cc(-c2[nH]c3c(c2Nc2ccccc2)C(=O)CCC3)ccn1)N(C)C(=O)OC(C)(C)C [Example 301, tert-butyl methyl[(2R)-1-oxo-1-({4-[4-oxo-3-(phenylamino)-4,5,6,7-tetrahydro-1H-indol-2-yl]pyridin-2-yl}amino)propan-2-yl]carbamate]	0.738
CN[C@H](C)C(=O)Nc1cc(-c2[nH]c3c(c2Nc2ccccc2)C(=O)CCC3)ccn1 [Example 302, N^2-methyl-N-{4-[4-oxo-3-(phenylamino)-4,5,6,7-tetrahydro-1H-indol-2-yl]pyridin-2-yl}-D-alaninamide]	0.48
